Source: ChEMBL document CHEMBL1177792, “Pre-clinical characterization of aryloxypyridine amides as histamine H3 receptor antagonists: identification of candidates for clinical development” (Bioorg Med Chem Lett, 2010)
Values belong to the molecule of their own block, whether it stands above or below them.

Key:
Histamine H3 receptor [1] = target: T1, Histamine H3 receptor (Homo sapiens, UniProt Q9Y5N1); experiment: Displacement of [125I]-iodoproxyfan from human recombinant histamine H3 receptor expressed in human SK-N-MC cells after 1 hr by scintillation counting; format: cell-based
T1 sequence (Q9Y5N1 whole entry): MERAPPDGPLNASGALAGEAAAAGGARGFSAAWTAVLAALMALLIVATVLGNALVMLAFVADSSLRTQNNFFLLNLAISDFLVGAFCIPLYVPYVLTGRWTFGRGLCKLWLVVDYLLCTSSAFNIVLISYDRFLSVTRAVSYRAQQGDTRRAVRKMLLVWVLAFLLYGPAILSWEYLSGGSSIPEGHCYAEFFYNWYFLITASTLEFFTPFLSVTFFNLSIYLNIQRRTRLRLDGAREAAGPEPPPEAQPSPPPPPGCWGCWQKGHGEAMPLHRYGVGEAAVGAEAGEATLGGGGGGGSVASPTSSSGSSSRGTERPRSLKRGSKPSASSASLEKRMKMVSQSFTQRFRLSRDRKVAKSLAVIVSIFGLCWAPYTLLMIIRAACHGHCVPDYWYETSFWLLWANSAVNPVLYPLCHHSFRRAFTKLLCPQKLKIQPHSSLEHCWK

Rattus norvegicus = experiment: Ex vivo receptor occupancy of histamine H3 receptor in Wistar rat brain at 10 mg/kg, po after 1 hr by autoradiography; format: functional
[2] = Bioavailability in Sprague-Dawley rat at 1 mg/kg, iv and 10 mg/kg, po; format: ADME, organism-based; settings: in vivo
[3] = target: T2, Voltage-gated inwardly rectifying potassium channel KCNH2 (Homo sapiens, UniProt Q12809); experiment: Inhibition of human ERG by patch clamp technique
T2 sequence (Q12809 whole entry): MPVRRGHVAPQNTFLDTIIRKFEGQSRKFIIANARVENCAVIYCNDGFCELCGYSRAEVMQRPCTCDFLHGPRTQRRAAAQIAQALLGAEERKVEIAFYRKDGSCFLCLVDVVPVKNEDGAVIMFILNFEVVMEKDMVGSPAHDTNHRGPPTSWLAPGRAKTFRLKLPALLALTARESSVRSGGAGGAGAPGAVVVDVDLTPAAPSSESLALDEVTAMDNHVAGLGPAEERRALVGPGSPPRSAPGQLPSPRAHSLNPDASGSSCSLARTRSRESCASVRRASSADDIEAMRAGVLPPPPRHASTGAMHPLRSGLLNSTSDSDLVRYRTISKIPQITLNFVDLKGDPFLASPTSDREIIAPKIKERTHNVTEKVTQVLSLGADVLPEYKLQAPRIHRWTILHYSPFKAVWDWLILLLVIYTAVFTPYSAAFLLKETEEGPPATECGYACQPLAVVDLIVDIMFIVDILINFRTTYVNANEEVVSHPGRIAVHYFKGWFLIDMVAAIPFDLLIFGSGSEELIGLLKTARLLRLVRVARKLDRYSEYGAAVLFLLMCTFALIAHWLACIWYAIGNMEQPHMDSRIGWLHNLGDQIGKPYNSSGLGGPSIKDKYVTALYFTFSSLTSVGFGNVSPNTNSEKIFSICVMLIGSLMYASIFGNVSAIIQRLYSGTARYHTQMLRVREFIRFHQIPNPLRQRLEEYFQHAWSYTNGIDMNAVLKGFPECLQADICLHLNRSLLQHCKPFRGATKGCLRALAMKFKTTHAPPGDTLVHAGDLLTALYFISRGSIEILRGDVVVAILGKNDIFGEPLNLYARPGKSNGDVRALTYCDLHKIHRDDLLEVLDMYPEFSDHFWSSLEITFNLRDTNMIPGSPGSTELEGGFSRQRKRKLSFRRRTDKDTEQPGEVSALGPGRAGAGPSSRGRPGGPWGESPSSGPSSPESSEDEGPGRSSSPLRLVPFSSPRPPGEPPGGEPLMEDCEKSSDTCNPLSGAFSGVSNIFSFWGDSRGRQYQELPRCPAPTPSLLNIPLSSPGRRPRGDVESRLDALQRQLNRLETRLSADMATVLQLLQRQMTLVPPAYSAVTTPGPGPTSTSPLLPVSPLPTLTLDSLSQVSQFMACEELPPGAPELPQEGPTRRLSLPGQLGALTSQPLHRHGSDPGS

[4] = Drug level in Wistar rat brain at 10 mg/kg, po after 1 hr; format: ADME, organism-based; set-up: dose 10 mg/kg, route oral; settings: read-out: Drug uptake
[5] = Plasma concentration in Wistar rat at 10 mg/kg, po after 1 hr; format: ADME, organism-based; set-up: dose 10 mg/kg, route oral; settings: read-out: Drug uptake
Histamine H3 receptor [6] = target: T3, Histamine H3 receptor (Rattus norvegicus, UniProt Q9QYN8); experiment: Binding affinity to histamine H3 receptor in rat brain; format: tissue-based
T3 sequence (Q9QYN8 whole entry): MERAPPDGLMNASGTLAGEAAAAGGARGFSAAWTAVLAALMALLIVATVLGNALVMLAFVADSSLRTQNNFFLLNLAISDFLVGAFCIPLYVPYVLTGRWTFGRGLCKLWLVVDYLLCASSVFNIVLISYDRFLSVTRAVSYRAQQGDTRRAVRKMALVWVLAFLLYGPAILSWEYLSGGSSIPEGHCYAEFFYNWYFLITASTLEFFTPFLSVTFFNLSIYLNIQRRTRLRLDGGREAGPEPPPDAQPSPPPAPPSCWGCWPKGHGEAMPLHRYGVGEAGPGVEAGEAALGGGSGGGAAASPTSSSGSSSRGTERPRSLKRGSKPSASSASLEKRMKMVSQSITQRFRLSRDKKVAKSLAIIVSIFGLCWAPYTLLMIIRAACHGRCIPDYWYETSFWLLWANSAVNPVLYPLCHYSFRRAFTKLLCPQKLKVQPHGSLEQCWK

hERG (KCNH2) = hERG (KCNH2) (Homo sapiens, UniProt Q12809); experiment: Displacement of radiolabeled astemizole from human ERG at 10 uM; settings: probe radiolabeled astemizole
Chain of hERG (KCNH2) (Q12809 whole entry): as the sequence (Q12809 whole entry) above

[7] = Clearance in Sprague-Dawley rat at 1 mg/kg, iv and 10 mg/kg, po; format: ADME, organism-based; settings: in vivo
[8] = Half life in Sprague-Dawley rat at 1 mg/kg, iv and 10 mg/kg, po; format: ADME, organism-based; settings: in vivo
[9] = Volume of distribution at steady state in Sprague-Dawley rat at 1 mg/kg, iv and 10 mg/kg, po; format: ADME, organism-based; settings: in vivo, read-out: Vdss
Histamine H3 receptor [10] = target: T3, Histamine H3 receptor; experiment: Antagonist activity at rat histamine H3 receptor expressed in human SK-N-MC cells assessed as inhibition of forskolin-induced cAMP accumulation after 6 hrs; format: functional, cell-based; settings: read-out: pA2 (converted)
[11] = target: T2, Voltage-gated inwardly rectifying potassium channel KCNH2; experiment: Displacement of radiolabeled astemizole from human ERG
[12] = Metabolic stability in human liver microsomes assessed as compound remaining after 30 mins; format: ADME, Microsome; settings: read-out: Stability
[13] = Metabolic stability in rat liver microsomes assessed as compound remaining after 30 mins; format: ADME, Microsome; settings: read-out: Stability
[14] = Half life in Beagle dog at 1 mg/kg, iv and 5 mg/kg, po; format: ADME, organism-based, Canis lupus familiaris; settings: in vivo
Histamine H3 receptor [15] = target: T1, Histamine H3 receptor; experiment: Antagonist activity at human histamine H3 receptor expressed in human SK-N-MC cells assessed as inhibition of forskolin-induced cAMP accumulation after 6 hrs; format: functional, cell-based; settings: read-out: pA2 (converted)
[16] = Clearance in Beagle dog at 1 mg/kg, iv and 5 mg/kg, po; format: ADME, organism-based, Canis lupus familiaris; settings: in vivo
[17] = Bioavailability in Beagle dog at 1 mg/kg, iv and 5 mg/kg, po; format: ADME, organism-based, Canis lupus familiaris; settings: in vivo
[18] = Volume of distribution at steady state in Beagle dog at 1 mg/kg, iv and 5 mg/kg, po; format: ADME, organism-based, Canis lupus familiaris; settings: in vivo, read-out: Vdss

Structure (SMILES): CC(C)N1CCN(C(=O)c2ccc(Oc3ccc(F)cc3)nc2)CC1
Ki (Histamine H3 receptor [1]): 79 nM

Structure (SMILES): O=C(c1cc(Oc2ccc(F)cc2)ccn1)N1CCCN(C2CCC2)CC1
Ki (Histamine H3 receptor [1]): 5.7 nM

Structure (SMILES): O=C(c1ccc(Oc2ccc(F)cc2)cn1)N1CCCN(C2CCC2)CC1
Activity (Rattus norvegicus): 87% | half-life [14]: 1.9 h | bioavailability [2]: 23% | Kb (Histamine H3 receptor [15]): 1.41 nM | concentration at 1 h [4]: 2370 nM | concentration at 1 h [5]: 1020 nM | Ki (Histamine H3 receptor [6]): 24 nM | clearance [7]: 80 mL/min/kg | clearance [16]: 35 mL/min/kg | half-life [8]: 1 h | Vd [9]: 4.5 L/kg | Kb (Histamine H3 receptor [10]): 26.3 nM | bioavailability [17]: 14% | Ki (Histamine H3 receptor [1]): 2.9 nM | Vd [18]: 3.6 L/kg | remaining at 0.5 h [12]: 95% | remaining at 0.5 h [13]: 56%

Structure (SMILES): CC(C)N1CCCN(C(=O)c2cccc(Oc3ccc(Cl)c(Cl)c3)n2)CC1
Ki (Histamine H3 receptor [1]): 430 nM

Structure (SMILES): O=C(c1ccc(Oc2ccc(F)cc2)nc1)N1CCCNCC1
Ki (Histamine H3 receptor [1]): 9000 nM

Structure (SMILES): O=C(c1ccc(Oc2ccc(Cl)cc2)cn1)N1CCCN(C2CCC2)CC1
Ki (Histamine H3 receptor [1]): 5.5 nM

Structure (SMILES): CCN1CCCN(C(=O)c2ccc(Oc3ccc(F)cc3)nc2)CC1
Ki (Histamine H3 receptor [1]): 34 nM

Structure (SMILES): O=C(c1cccc(Oc2ccc(Cl)c(Cl)c2)n1)N1CCCN(C2CC2)CC1
Ki (Histamine H3 receptor [1]): 1040 nM

Structure (SMILES): CC(C)N1CCN(C(=O)c2ccc(Oc3cccc(C#N)c3)nc2)CC1
Ki (Histamine H3 receptor [1]): 110 nM

Structure (SMILES): CC(C)N1CCCN(C(=O)c2ccc(Oc3ccc(Cl)c(Cl)c3)nc2)CC1
Ki (Histamine H3 receptor [1]): 18 nM

Structure (SMILES): O=C(c1ccc(Oc2ccc(F)cc2)nc1)N1CCN(C2CC2)CC1
Ki (Histamine H3 receptor [1]): 430 nM

Structure (SMILES): O=C(c1ccc(Oc2cccc(F)c2)cn1)N1CCCN(C2CCC2)CC1
Ki (Histamine H3 receptor [1]): 5.5 nM

Structure (SMILES): CC(C)N1CCN(C(=O)c2ccc(Oc3cccc(Cl)c3)nc2)CC1
Ki (Histamine H3 receptor [1]): 100 nM

Structure (SMILES): CN1CCCN(C(=O)c2ccc(Oc3ccc(F)cc3)nc2)CC1
Ki (Histamine H3 receptor [1]): 860 nM

Continued, in another order:

bioavailability [2]: 62% | concentration at 1 h [4]: 2620 nM | concentration at 1 h [5]: 4470 nM | Ki (Histamine H3 receptor [6]): 23 nM | clearance [7]: 36 mL/min/kg | half-life [8]: 1.3 h | Vd [9]: 3 L/kg | Kb (Histamine H3 receptor [10]): 3.98 nM | Ki (Histamine H3 receptor [1]): 59 nM | remaining at 0.5 h [12]: 95% | remaining at 0.5 h [13]: 63%
Structure (SMILES): O=C(c1ccc(Oc2ccc(Cl)cc2)nc1)N1CCCN(C2CCC2)CC1
Activity (Rattus norvegicus): 95% | IC50 [3]: 1400 nM | inhibition at 10 µM (hERG (KCNH2)): 23% | IC50 [11]: > 10000 nM

Ki (Histamine H3 receptor [1]): 2.3 nM
Structure (SMILES): O=C(c1ccc(Sc2ccccc2)nc1)N1CCCN(C2CCC2)CC1

Ki (Histamine H3 receptor [1]): 12 nM
Structure (SMILES): N#Cc1cccc(Oc2ccc(C(=O)N3CCCN(C4CC4)CC3)cn2)c1

Ki (Histamine H3 receptor [1]): 13 nM
Structure (SMILES): O=C(c1ccc(Oc2ccc(Cl)cc2)nc1)N1CCCN(C2CC2)CC1

Ki (Histamine H3 receptor [1]): 10 nM
Structure (SMILES): O=C(c1ccc(Oc2ccccc2)nc1)N1CCCN(C2CC2)CC1

bioavailability [2]: 11% | concentration at 1 h [4]: 1960 nM | concentration at 1 h [5]: 360 nM | clearance [7]: 118 mL/min/kg | half-life [8]: 0.8 h | Vd [9]: 4.2 L/kg | Ki (Histamine H3 receptor [1]): 4.1 nM | remaining at 0.5 h [12]: 99% | remaining at 0.5 h [13]: 86%
Structure (SMILES): O=C(c1ccc(Oc2cccc(F)c2)nc1)N1CCCN(C2CCC2)CC1
Activity (Rattus norvegicus): 88% | IC50 [3]: 5400 nM | inhibition at 10 µM (hERG (KCNH2)): 0% | IC50 [11]: > 10000 nM

Ki (Histamine H3 receptor [1]): 17 nM
Structure (SMILES): O=C(c1ccc(Oc2ccccc2Cl)nc1)N1CCCN(C2CCC2)CC1

Ki (Histamine H3 receptor [1]): 4.7 nM
Structure (SMILES): O=C(c1ccc(Oc2cccc(Cl)c2)cn1)N1CCCN(C2CCC2)CC1

Ki (Histamine H3 receptor [1]): 11 nM
Structure (SMILES): O=C(c1cncc(Oc2ccccc2)c1)N1CCCN(C2CCC2)CC1
